Reference: the NIST ThermoML archive (doi:10.1021/je900164a)
Numbers after ± are expanded uncertainties.

Assay: xn = mol fraction of the nth substance listed
Conditions: 101 kPa, Liquid, Vibrating tube method

CNC(=O)NC [1,3-dimethylurea] + O
Conditions	mass density [kg/m3]
274.15 K, x1 = 0.000898	1000.36 ± 0.04
274.15 K, x1 = 0.0018	1000.83 ± 0.041
274.15 K, x1 = 0.00448	1002.26 ± 0.041
274.15 K, x1 = 0.00893	1004.68 ± 0.043
274.15 K, x1 = 0.01771	1009.58 ± 0.049
274.15 K, x1 = 0.02461	1013.5 ± 0.053
274.15 K, x1 = 0.03141	1017.27 ± 0.059
274.15 K, x1 = 0.03815	1021.02 ± 0.065
274.15 K, x1 = 0.04471	1024.43 ± 0.072
274.15 K, x1 = 0.05126	1027.8 ± 0.078
274.15 K, x1 = 0.06722	1035.64 ± 0.096
274.15 K, x1 = 0.08246	1042.41 ± 0.12
275.15 K, x1 = 0.000898	1000.39 ± 0.04
275.15 K, x1 = 0.0018	1000.85 ± 0.041
275.15 K, x1 = 0.00448	1002.25 ± 0.065
275.15 K, x1 = 0.00893	1004.65 ± 0.043
275.15 K, x1 = 0.01771	1009.48 ± 0.048
275.15 K, x1 = 0.02461	1013.35 ± 0.053
275.15 K, x1 = 0.03141	1017.12 ± 0.059
275.15 K, x1 = 0.03815	1020.73 ± 0.065
275.15 K, x1 = 0.04471	1024.13 ± 0.071
275.15 K, x1 = 0.05126	1027.45 ± 0.078
275.15 K, x1 = 0.06722	1035.23 ± 0.097
275.15 K, x1 = 0.08246	1042.02 ± 0.12
276.15 K, x1 = 0.000898	1000.4 ± 0.04
276.15 K, x1 = 0.0018	1000.86 ± 0.041
276.15 K, x1 = 0.00448	1002.26 ± 0.041
276.15 K, x1 = 0.00893	1004.64 ± 0.043
276.15 K, x1 = 0.01771	1009.4 ± 0.048
276.15 K, x1 = 0.02461	1013.24 ± 0.053
276.15 K, x1 = 0.03141	1016.94 ± 0.059
276.15 K, x1 = 0.03815	1020.54 ± 0.065
276.15 K, x1 = 0.04471	1023.92 ± 0.071
276.15 K, x1 = 0.05126	1027.2 ± 0.077
276.15 K, x1 = 0.06722	1034.87 ± 0.096
276.15 K, x1 = 0.08246	1041.67 ± 0.12
277.15 K, x1 = 0.000898	1000.41 ± 0.04
277.15 K, x1 = 0.0018	1000.87 ± 0.041
277.15 K, x1 = 0.00448	1002.27 ± 0.041
277.15 K, x1 = 0.00893	1004.63 ± 0.043
277.15 K, x1 = 0.01771	1009.35 ± 0.048
277.15 K, x1 = 0.02461	1013.14 ± 0.053
277.15 K, x1 = 0.03141	1016.8 ± 0.058
277.15 K, x1 = 0.03815	1020.37 ± 0.064
277.15 K, x1 = 0.04471	1023.74 ± 0.07
277.15 K, x1 = 0.05126	1027.03 ± 0.077
277.15 K, x1 = 0.06722	1034.56 ± 0.095
277.15 K, x1 = 0.08246	1041.26 ± 0.12
278.15 K, x1 = 0.000898	1000.41 ± 0.04
278.15 K, x1 = 0.0018	1000.86 ± 0.041
278.15 K, x1 = 0.00448	1002.23 ± 0.041
278.15 K, x1 = 0.00893	1004.56 ± 0.043
278.15 K, x1 = 0.01771	1009.26 ± 0.048
278.15 K, x1 = 0.02461	1013.05 ± 0.053
278.15 K, x1 = 0.03141	1016.7 ± 0.059
278.15 K, x1 = 0.03815	1020.22 ± 0.065
278.15 K, x1 = 0.04471	1023.58 ± 0.071
278.15 K, x1 = 0.05126	1026.87 ± 0.077
278.15 K, x1 = 0.06722	1034.3 ± 0.095
278.15 K, x1 = 0.08246	1040.88 ± 0.12
278.15 K, x1 = 0.09755	1046.81 ± 0.14
279.18 K, x1 = 0.000898	1000.38 ± 0.04
279.18 K, x1 = 0.0018	1000.83 ± 0.041
279.18 K, x1 = 0.00448	1002.19 ± 0.041
279.18 K, x1 = 0.00893	1004.5 ± 0.043
279.18 K, x1 = 0.01771	1009.16 ± 0.048
279.18 K, x1 = 0.02461	1012.89 ± 0.053
279.18 K, x1 = 0.03141	1016.44 ± 0.059
279.18 K, x1 = 0.03815	1019.9 ± 0.065
279.18 K, x1 = 0.04471	1023.29 ± 0.071
279.18 K, x1 = 0.05126	1026.57 ± 0.077
279.18 K, x1 = 0.06722	1033.9 ± 0.096
279.18 K, x1 = 0.08246	1040.45 ± 0.12
279.18 K, x1 = 0.09755	1046.32 ± 0.14
280.15 K, x1 = 0.000898	1000.35 ± 0.04
280.15 K, x1 = 0.0018	1000.78 ± 0.041
280.15 K, x1 = 0.00448	1002.14 ± 0.042
280.15 K, x1 = 0.00893	1004.44 ± 0.043
280.15 K, x1 = 0.01771	1009.05 ± 0.048
280.15 K, x1 = 0.02461	1012.74 ± 0.053
280.15 K, x1 = 0.03141	1016.24 ± 0.058
280.15 K, x1 = 0.03815	1019.66 ± 0.064
280.15 K, x1 = 0.04471	1023.02 ± 0.07
280.15 K, x1 = 0.05126	1026.26 ± 0.077
280.15 K, x1 = 0.06722	1033.52 ± 0.095
280.15 K, x1 = 0.08246	1040.01 ± 0.12
280.15 K, x1 = 0.09755	1045.78 ± 0.14
281.15 K, x1 = 0.000898	1000.29 ± 0.04
281.15 K, x1 = 0.0018	1000.73 ± 0.041
281.15 K, x1 = 0.00448	1002.06 ± 0.042
281.15 K, x1 = 0.00893	1004.34 ± 0.043
281.15 K, x1 = 0.01771	1008.91 ± 0.048
281.15 K, x1 = 0.02461	1012.56 ± 0.053
281.15 K, x1 = 0.03141	1016 ± 0.058
281.15 K, x1 = 0.03815	1019.47 ± 0.064
281.15 K, x1 = 0.04471	1022.79 ± 0.07
281.15 K, x1 = 0.05126	1025.97 ± 0.077
281.15 K, x1 = 0.06722	1033.21 ± 0.095
281.15 K, x1 = 0.08246	1039.61 ± 0.12
281.15 K, x1 = 0.09755	1045.39 ± 0.14
282.15 K, x1 = 0.000898	1000.22 ± 0.04
282.15 K, x1 = 0.0018	1000.65 ± 0.041
282.15 K, x1 = 0.00448	1001.98 ± 0.042
282.15 K, x1 = 0.00893	1004.22 ± 0.043
282.15 K, x1 = 0.01771	1008.75 ± 0.048
282.15 K, x1 = 0.02461	1012.36 ± 0.053
282.15 K, x1 = 0.03141	1015.77 ± 0.058
282.15 K, x1 = 0.03815	1019.19 ± 0.064
282.15 K, x1 = 0.04471	1022.47 ± 0.07
282.15 K, x1 = 0.05126	1025.61 ± 0.077
282.15 K, x1 = 0.06722	1032.76 ± 0.095
282.15 K, x1 = 0.08246	1039.05 ± 0.12
282.15 K, x1 = 0.09755	1044.75 ± 0.14
283.15 K, x1 = 0.000898	1000.13 ± 0.04
283.15 K, x1 = 0.0018	1000.57 ± 0.041
283.15 K, x1 = 0.00448	1001.88 ± 0.041
283.15 K, x1 = 0.00893	1004.12 ± 0.043
283.15 K, x1 = 0.01771	1008.6 ± 0.048
283.15 K, x1 = 0.02461	1012.17 ± 0.053
283.15 K, x1 = 0.03141	1015.58 ± 0.058
283.15 K, x1 = 0.03815	1019.01 ± 0.064
283.15 K, x1 = 0.04471	1022.23 ± 0.07
283.15 K, x1 = 0.05126	1025.27 ± 0.077
283.15 K, x1 = 0.06722	1032.44 ± 0.096
283.15 K, x1 = 0.08246	1038.58 ± 0.12
283.15 K, x1 = 0.09755	1044.35 ± 0.14
288.15 K, x1 = 0.000898	999.526 ± 0.041
288.15 K, x1 = 0.0018	999.93 ± 0.041
288.15 K, x1 = 0.00448	1001.23 ± 0.042
288.15 K, x1 = 0.00893	1003.35 ± 0.044
288.15 K, x1 = 0.01771	1007.67 ± 0.048
288.15 K, x1 = 0.02461	1011.04 ± 0.053
288.15 K, x1 = 0.03141	1014.35 ± 0.058
288.15 K, x1 = 0.03815	1017.55 ± 0.063
288.15 K, x1 = 0.04471	1020.59 ± 0.069
288.15 K, x1 = 0.05126	1023.54 ± 0.076
288.15 K, x1 = 0.06722	1030.34 ± 0.093
288.15 K, x1 = 0.08246	1036.44 ± 0.11
288.15 K, x1 = 0.09755	1041.6 ± 0.14
298.15 K, x1 = 0.000898	997.452 ± 0.043
298.15 K, x1 = 0.0018	997.853 ± 0.043
298.15 K, x1 = 0.00448	999.058 ± 0.042
298.15 K, x1 = 0.00893	1001.08 ± 0.043
298.15 K, x1 = 0.01771	1005.1 ± 0.048
298.15 K, x1 = 0.02461	1008.24 ± 0.052
298.15 K, x1 = 0.03141	1011.28 ± 0.057
298.15 K, x1 = 0.03815	1014.24 ± 0.062
298.15 K, x1 = 0.04471	1017.04 ± 0.068
298.15 K, x1 = 0.05126	1019.75 ± 0.074
298.15 K, x1 = 0.06722	1025.98 ± 0.091
298.15 K, x1 = 0.08246	1031.41 ± 0.11
298.15 K, x1 = 0.09755	1036.31 ± 0.13
308.15 K, x1 = 0.000898	994.42 ± 0.045
308.15 K, x1 = 0.0018	994.802 ± 0.045
308.15 K, x1 = 0.00448	995.947 ± 0.045
308.15 K, x1 = 0.00893	997.861 ± 0.044
308.15 K, x1 = 0.01771	1001.7 ± 0.047
308.15 K, x1 = 0.02461	1004.63 ± 0.051
308.15 K, x1 = 0.03141	1007.43 ± 0.055
308.15 K, x1 = 0.03815	1010.16 ± 0.06
308.15 K, x1 = 0.04471	1012.76 ± 0.066
308.15 K, x1 = 0.05126	1015.27 ± 0.072
308.15 K, x1 = 0.06722	1021.16 ± 0.088
308.15 K, x1 = 0.08246	1026.06 ± 0.11
308.15 K, x1 = 0.09755	1030.33 ± 0.13
